What was measured:
[1] = system: glycine site coupled to the NMDA ionophore complex; details: literature citations; cited from earlier work
[2] = system: convulsions induced by i.c.v. infusion of NMDA; experiment: Convulsions induced by i.c.v. infusion of NMDA, TV50 (Test 2); assay type: in vivo, mouse (male NMRI); details: dose infused i.c.v. per minute with NMDA to increase time to onset of clonic seizures by 50%
Method: The glycine antagonists are co-infused with NMDA and their anti-convulsive effect is measured by determining a) the TV50 value which represents the dose (μg/kg) of the glycine antagonist that has to be infused per minute in order to increase time to onset of clonic seizures by 50%, b) the ED50 value which represents the dose (μg/kg) of the glycine antagonist that has to be infused per minute in order to protect 50% of the animals against clonic seizures for 150 seconds after the start of i.c.v. infusion.
Convulsions induced by i.c.v. infusion of NMDA (Test 2 & 3)
58.84 μg/ml (1 nmol in 2.5 μl) of NMDA (Sigma) dissolved in 0.9% NaCl is co-infused i.c.v. with a glycine antagonist at a speed of 5 μl/min. Infusion is performed through a cannula placed 1 mm posterior and 1 mm lateral to the Bregma point. The cannula is injected 4.3 mm into the skull of male NMRI mice weighing 25 g (range 23-27 g). Placement and length of the cannula into the skull is fixed by a plate positioned 4.3 mm from the point of the cannula. The infusion is stopped after the appearance of clonic seizures in all extremities or 150 seconds after the start time of the infusion. At least 5 doses of each glycine antagonist are tested using 8 mice per dose.

[3] = biological target: T1, glycine site of the NMDA receptor complex (Rattus norvegicus, UniProt P35439); experiment: In vitro [3H]-glycine binding to rat brain membranes (Test 1); parameters: species or system rat (male Wistar); details: 50% displacement of specific [3H]-glycine binding; 50 nM [3H]-glycine, 4° C., 30 min
T1 construct: Crude synaptic (P2) membranes are prepared from rat forebrains; from tissue; host or cells: rat forebrain (male Wistar), crude synaptic (P2) membranes, Triton X-100 washed
Method: The compounds according to the invention were tested as regards the affinity for one or more of the different types of excitatory amino acid receptors and studied in simple radioligand binding experiments. In essence, the method involves incubation of a particular selected radio-labelled ligand and the particular specific substance to be investigated with brain homogenates which contain the receptor. Measurement of receptor occupancy is made by determination of the specific radioactivity bound to the homogenate.
This will make them useful in the treatment of any of the numerous indications caused by hyperactivity of excitatory amino acids.
The glycine site binding activity of these compounds of the present invention can be illustrated by determining their capability for displacing radioactively labelled glycine from the glycine site.
The displacement activity of the compounds may be shown by determining the IC50 value which represents the concentration (μM) which causes a displacement of 50% of the specific binding of [^3 H]-glycine.
In vitro [^3 H]-Glycine Binding to Rat Brain Membranes (Test 1)
The membrane preparation and assay of specific [^3 H]-glycine binding is based upon methodology described by Haring et al. (1991) J. Neurochem. 57, 323-332 and Yoneda et al. (1991) J. Neurochem. 55, 237-244.
All steps are performed at 4° C. Buffers are prepared fresh each week from distilled, deionized water and filtered through sterile 0.2 μm membranes to eliminate artifacts due to microbial contamination. Crude synaptic (P2) membranes are prepared from rat forebrains freshly dissected from male Wistar rats and washed 4 times with low ionic strength buffer. On the day of the assay these preparations are additionally washed with buffer containing a low concentration (0.08% g/g) of Triton X-100, and then twice more in the absence of this detergent. The procedure is aimed at the disruption of synaptic membrane vesicles and removal of endogenous amino acids.
Specific radioligand binding is measured by incubating membranes (400-600 μg/ml of protein) with 50 nM [^3 H]-glycine in the presence or absence of 1 mM of unlabelled glycine at 4° C. for 30 min. Free and bound ligand are separated by centrifugation. Each pellet is rinsed 2× and bound radioactivity measured by liquid scintillation counting. Test substances are substituted for Unlabelled glycine in the assay.

Row | Structure (SMILES) | activity at the glycine site (agonist/antagonist, in words) [1] | Test 2 TV50 [2] [µg/kg] | IC50 [3] [nM]
1 | N#Cc1cc2[nH]c(=O)c(=O)[nH]c2cc1[N+](=O)[O-] [CNQX, 6-cyano-7-nitroquinoxaline-2,3-dione] | weak antagonists |  | 
2 | C[C@@H](N)C(=O)O [D-alanine] | strong agonist activity |  | 
3 | N[C@@H]1CONC1=O [D-cycloserine] | partial agonists |  | 
4 | N[C@H](CO)C(=O)O [D-serine] | strong agonist activity |  | 
5 | O=C1c2ccccc2-c2[nH]c(=O)c(=O)[nH]c21 [Example 2, 9H-Indeno[1,2-b]pyrazine-2,3,9(1H,4H)-trione] |  | 44 | 920
6 | O=c1cnc2c([nH]1)-c1ccccc1C21OCCO1 [Example 6, 9H-Indeno[1,2-b]pyrazine-3,9(4H)-dione 9-ethylene acetal] |  |  | 3700
7 | O=C(O)c1cc(O)c2ccc(Cl)cc2n1 [Example 7-Cl-Kyn, 7-chloro-kynurenic acid] | quite strong antagonists |  | 
8 | O=c1[nH]c2c([nH]c1=O)C(O)c1ccccc1-2 (stereo not shown) [Example 11, 9-Hydroxy-9H-indeno[1,2-b]pyrazine-2,3(1H,4H) -dione] |  | 5.0 | 920
9 | CN1CCN(C2c3ccccc3-c3[nH]c(=O)c(=O)[nH]c32)CC1 (stereo not shown) [Example 18, 9-(4-Methyl-1-piperazinyl)-9H-indeno[1,2-b]pyrazine-2,3(1H,4H)-dione] |  | 4.5 | 150
10 | NC1CCN(O)C1=O (stereo not shown) [HA-966, 3-amino-1-hydroxy-2-pyrrolidone] | weak antagonists |  | 

Source: patent US5646146A, “Heterocyclic compounds and their preparation and use” (Novo Nordisk A/S, priority 1993, dated 1997)
